Experimental data: patent US10709709B2, “Substituted carbonucleoside derivatives useful as anticancer agents” (Pfizer Inc., priority 2016, dated 2020)
Counter-ions that a name gives are not always drawn.

Columns and labels:
[1] = system: A549 lung adenocarcinoma cells; assay: A549 proliferation assay (Cell Titer Glo); format: cell-based; settings: 7 days with compound, cell viability by Cell Titer Glo (ATP)
Method: A549 lung adenocarcinoma cells (American Type Culture Collection) were maintained in DMEM growth media (Life Technologies) supplemented with 10% v/v heat inactivated fetal bovine serum (Sigma) and cultured at 37° C., 5% CO2. Exponentially growing A549 cells were plated in 96-well black tissue culture treated plates (Corning) at a density of […] in a volume of 100 μl culture media and allowed to adhere overnight at 37° C., 5% CO2. The following day, compound plates were prepared by making nine-point 3.3-fold dilutions in DMSO with a top concentration of 10 mM. Compounds were further diluted in culture media and 11 μl was added to the cells (final top assay concentration was 10 μM and DMSO was 0.2%). Cells were incubated with compound at 37° C., 5% CO2 for 7 days with media and compound replacement on day 4. Cell viability was assayed on Day 7 by adding 100 μl Cell Titer Glo (Promega) reagent to the plate to measure the amount of ATP present in the cells. Luminescence was read using the Envision 2104 Multilabel Reader (Perkin Elmer). The 50% inhibitory concentration (IC50) was determined using a 4-parameter fit model normalized to the DMSO control in dose response.

[2] = target: PRMT5/MEP50 protein complex (Homo sapiens (Human), UniProt O14744); assay: PRMT5 biochemical assay (3H-SAM methylation of H4(1-21) peptide, filter plate scintillation); settings: 10 nM PRMT5/MEP50 complex, 200 nM H4(1-21) peptide, 1 uM SAM, 25 minute incubation at room temperature
Procedure, shortened: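 Human PRMT5/MEP50 complex (10 nM) methylating H4(1-21) peptide (200 nM) with 3H/unlabelled SAM (1 uM final) in pH 8.5 Tris buffer, 25 min at room temperature. Stopped with TCA, 3H-peptide captured on filter plates and scintillation-counted. IC50 from 4-parameter fit.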

Sequence of PRMT5/MEP50 protein complex (O14744 other isoform, or with tags, fused parts or gaps): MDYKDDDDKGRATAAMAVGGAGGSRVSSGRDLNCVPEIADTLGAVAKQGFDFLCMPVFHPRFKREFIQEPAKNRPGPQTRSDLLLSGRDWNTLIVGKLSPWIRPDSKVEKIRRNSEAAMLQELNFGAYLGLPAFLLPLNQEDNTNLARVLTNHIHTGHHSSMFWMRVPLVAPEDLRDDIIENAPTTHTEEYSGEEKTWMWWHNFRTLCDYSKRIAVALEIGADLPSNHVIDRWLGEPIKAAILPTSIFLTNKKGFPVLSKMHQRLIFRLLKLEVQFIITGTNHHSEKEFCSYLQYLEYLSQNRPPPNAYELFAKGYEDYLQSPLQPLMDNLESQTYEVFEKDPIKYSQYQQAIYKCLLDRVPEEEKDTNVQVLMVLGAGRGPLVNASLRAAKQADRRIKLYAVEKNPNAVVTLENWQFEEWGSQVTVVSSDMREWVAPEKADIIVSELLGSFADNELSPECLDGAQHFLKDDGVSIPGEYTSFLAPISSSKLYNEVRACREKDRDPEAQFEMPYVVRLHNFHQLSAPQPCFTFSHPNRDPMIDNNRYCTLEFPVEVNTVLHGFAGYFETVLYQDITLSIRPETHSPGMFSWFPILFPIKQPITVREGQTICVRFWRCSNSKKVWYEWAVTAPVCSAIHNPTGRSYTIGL
Sequence of PRMT5/MEP50 protein complex (Q9BQA1 whole entry partner): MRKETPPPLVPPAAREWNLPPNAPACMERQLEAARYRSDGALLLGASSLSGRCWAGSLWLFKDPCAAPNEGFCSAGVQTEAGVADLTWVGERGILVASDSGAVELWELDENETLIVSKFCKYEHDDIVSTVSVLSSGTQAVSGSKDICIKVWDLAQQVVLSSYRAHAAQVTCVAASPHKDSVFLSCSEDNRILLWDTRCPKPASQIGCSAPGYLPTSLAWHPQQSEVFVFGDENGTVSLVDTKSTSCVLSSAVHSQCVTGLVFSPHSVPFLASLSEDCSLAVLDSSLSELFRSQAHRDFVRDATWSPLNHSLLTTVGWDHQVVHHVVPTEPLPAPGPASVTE

Cc1cc2c(c(O[C@H]3C[C@@H](n4cc(Br)c5c(N)ncnc54)[C@H](O)[C@@H]3O)c1)CNCC2 [Example 123, (1S,2S,3R,5S)-3-(4-amino-5-bromo-7H-pyrrolo[2,3-d]pyrimidin-7-yl)-5-((6-methyl-1,2,3,4-tetrahydroisoquinolin-8-yl)oxy)cyclopentane-1,2-diol]
IC50 ([1]; Homo sapiens, A549, 168 h): 452 nM
IC50 [2]: 2 nM

Nc1ncnc2c1c(F)cn2[C@@H]1C[C@H](Oc2cccc3c2CNCC3)[C@@H](O)[C@H]1O [Example 99, (1S,2S,3R,5S)-3-(4-amino-5-fluoro-7H-pyrrolo[2,3-d]pyrimidin-7-yl)-5-((1,2,3,4-tetrahydroisoquinolin-8-yl)oxy)cyclopentane-1,2-diol]
IC50 ([1]; Homo sapiens, A549, 168 h): 728 nM
IC50 [2]: 2 nM

Cc1ncnc2c1ccn2[C@@H]1C[C@H](Oc2ccc(Cl)c(F)c2CN)[C@@H](O)[C@H]1O [Example 143, (1S,2S,3S,5R)-3-(2-(aminomethyl)-4-chloro-3-fluorophenoxy)-5-(4-methyl-7H-pyrrolo[2,3-d]pyrimidin-7-yl)cyclopentane-1,2-diol]
IC50 ([1]; Homo sapiens, A549, 168 h): 1400 nM
IC50 [2]: 6 nM

Cc1ncnc2c1c(F)cn2[C@@H]1C[C@H](Oc2cc(C#N)cc3c2CNCC3)[C@@H](O)[C@H]1O [Example 119, 8-(((1S,2S,3S,4R)-4-(5-fluoro-4-methyl-7H-pyrrolo[2,3-d]pyrimidin-7-yl)-2,3-dihydroxycyclopentyl)oxy)-1,2,3,4-tetrahydroisoquinoline-6-carbonitrile]
IC50 ([1]; Homo sapiens, A549, 168 h): 556 nM
IC50 [2]: 1 nM

Cc1ncc2c(F)cn([C@@H]3C[C@H](Oc4cc(F)c(F)c5c4CNCC5)[C@@H](O)[C@H]3O)c2n1 [Example 178, (1S,2S,3S,5R)-3-((5,6-difluoro-1,2,3,4-tetrahydroisoquinolin-8-yl)oxy)-5-(5-fluoro-2-methyl-7H-pyrrolo[2,3-d]pyrimidin-7-yl)cyclopentane-1,2-diol]
IC50 ([1]; Homo sapiens, A549, 168 h): 4060 nM
IC50 [2]: 2 nM

Cc1nc(N)nc2c1ccn2[C@@H]1C[C@H]([C@H](O)c2ccc(F)c(F)c2)[C@@H](O)[C@H]1O [Example 48, (1R,2S,3R,5R)-3-(2-amino-4-methyl-7H-pyrrolo[2,3-d]pyrimidin-7-yl)-5-[(S)-(3,4-difluorophenyl)(hydroxy)methyl]cyclopentane-1,2-diol]
IC50 ([1]; Homo sapiens, A549, 168 h): 192 nM
IC50 [2]: 5 nM

Cc1ncnc2c1ccn2[C@@H]1C[C@H](Oc2cc(C(F)(F)F)cc3c2CNCC3)[C@@H](O)[C@H]1O [Example 90, (1S,2S,3R,5S)-3-(4-methyl-7H-pyrrolo[2,3-d]pyrimidin-7-yl)-5-((6-(trifluoromethyl)-1,2,3,4-tetrahydroisoquinolin-8-yl)oxy)cyclopentane-1,2-diol]
IC50 ([1]; Homo sapiens, A549, 168 h): 948 nM
IC50 [2]: 2 nM

Cc1ncnc2c1ccn2[C@@H]1C[C@H](Oc2cc(F)cc3c2CNCC3)[C@@H](O)[C@H]1O [Example 85, (1S,2S,3S,5R)-3-((6-fluoro-1,2,3,4-tetrahydroisoquinolin-8-yl)oxy)-5-(4-methyl-7H-pyrrolo[2,3-d]pyrimidin-7-yl)cyclopentane-1,2-diol]
IC50 ([1]; Homo sapiens, A549, 168 h): 920 nM
IC50 [2]: 2 nM

Nc1ncnc2c1c(F)cn2[C@@H]1C[C@H](Oc2cc(C(F)F)cc3c2CNCC3)[C@@H](O)[C@H]1O [Example 195, (1S,2S,3R,5S)-3-(4-amino-5-fluoro-7H-pyrrolo[2,3-d]pyrimidin-7-yl)-5-((6-(difluoromethyl)-1,2,3,4-tetrahydroisoquinolin-8-yl)oxy)cyclopentane-1,2-diol]
IC50 ([1]; Homo sapiens, A549, 168 h): 22 nM
IC50 [2]: 1 nM

Cc1ncnc2c1ccn2[C@@H]1C[C@H]([C@H](O)c2ccc(Cl)cc2)[C@@H](O)[C@H]1O [Example 11, (1S,2R,3R,5R)-3-[(S)-(4-chlorophenyl)(hydroxy)methyl]-5-(4-methyl-7H-pyrrolo[2,3-d]pyrimidin-7-yl)cyclopentane-1,2-diol]
IC50 ([1]; Homo sapiens, 168 h): 1390 nM
IC50 [2]: 20 nM

Cc1ncnc2c1ccn2[C@@H]1C[C@H](C(F)c2ccc(F)cc2)[C@@H](O)[C@H]1O (single isomer, unassigned) [Example 22]
IC50 ([1]; Homo sapiens, A549, 168 h): 135 nM
IC50 [2]: 3 nM

Cc1ncnc2c1ccn2[C@@H]1C[C@H](Oc2ccc(F)c3c2C(C)NCC3)[C@@H](O)[C@H]1O (single isomer, unassigned) [Example 214]
IC50 [1]: 1080 nM
IC50 [2]: 8 nM

Nc1ncnc2c1c(F)cn2[C@@H]1C[C@H](Oc2cc(Cl)c(F)c3c2CNCC3)[C@@H](O)[C@H]1O [Example 108, (1S,2S,3R,5S)-3-(4-amino-5-fluoro-7H-pyrrolo[2,3-d]pyrimidin-7-yl)-5-((6-chloro-5-fluoro-1,2,3,4-tetrahydroisoquinolin-8-yl)oxy)cyclopentane-1,2-diol]
IC50 ([1]; Homo sapiens, A549, 168 h): 163 nM
IC50 [2]: 1 nM

Cc1ncnc2c1ccn2[C@@H]1C[C@H](Oc2cc(-c3cn[nH]c3)cc3c2CNCC3)[C@@H](O)[C@H]1O [Example 165, (1S,2S,3S,5R)-3-((6-(1H-pyrazol-4-yl)-1,2,3,4-tetrahydroisoquinolin-8-yl)oxy)-5-(4-methyl-7H-pyrrolo[2,3-d]pyrimidin-7-yl)cyclopentane-1,2-diol]
IC50 ([1]; Homo sapiens, A549, 168 h): 766 nM
IC50 [2]: 2 nM

Cc1ncnc2c1ccn2[C@@H]1C[C@H](Oc2cccc3c2CC(N)CO3)[C@@H](O)[C@H]1O (single isomer, unassigned) [Example 188]
IC50 ([1]; Homo sapiens, A549, 168 h): 6470 nM
IC50 [2]: 4 nM

Cc1ncnc2c1ccn2[C@@H]1C[C@H](Oc2ccc(F)cc2[C@H](C)N)[C@@H](O)[C@H]1O [Example 138, (1S,2S,3S,5R)-3-(2-((S)-1-aminoethyl)-4-fluorophenoxy)-5-(4-methyl-7H-pyrrolo[2,3-d]pyrimidin-7-yl)cyclopentane-1,2-diol]
IC50 ([1]; Homo sapiens, A549, 168 h): 1480 nM
IC50 [2]: 2 nM

Cc1cc2c(c(O[C@H]3C[C@@H](n4cc(Cl)c5c(N)ncnc54)[C@H](O)[C@@H]3O)c1)CNCC2 [Example 129, (1S,2S,3R,5S)-3-(4-amino-5-chloro-7H-pyrrolo[2,3-d]pyrimidin-7-yl)-5-((6-methyl-1,2,3,4-tetrahydroisoquinolin-8-yl)oxy)cyclopentane-1,2-diol]
IC50 ([1]; Homo sapiens, A549, 168 h): 1040 nM
IC50 [2]: 1 nM

Cc1ncnc2c1ccn2[C@@H]1C[C@H](Oc2ccc(F)c3c2CNCC3C)[C@@H](O)[C@H]1O (single isomer, unassigned) [Example 182, hydrochloride]
IC50 ([1]; hydrochloride): 2180 nM
IC50 [2]: 2 nM

Cc1ncnc2c1ccn2[C@@H]1C[C@H](Oc2ccc(F)c3c2C(C)NCC3)[C@@H](O)[C@H]1O (single isomer, unassigned) [Example 213]
IC50 ([1]; Homo sapiens, A549, 168 h): 1200 nM
IC50 [2]: 1 nM

Nc1ncnc2c1c(Cl)cn2[C@@H]1C[C@H](Oc2ccc(F)c3c2CNCC3)[C@@H](O)[C@H]1O [Example 133, (1S,2S,3R,5S)-3-(4-amino-5-chloro-7H-pyrrolo[2,3-d]pyrimidin-7-yl)-5-((5-fluoro-1,2,3,4-tetrahydroisoquinolin-8-yl)oxy)cyclopentane-1,2-diol]
IC50 ([1]; Homo sapiens, A549, 168 h): 443 nM
IC50 [2]: 1 nM

Nc1ncnc2c1c(Cl)cn2[C@@H]1C[C@H](Oc2cc(Cl)cc3c2CNCC3)[C@@H](O)[C@H]1O [Example 130, (1S,2S,3R,5S)-3-(4-amino-5-chloro-7H-pyrrolo[2,3-d]pyrimidin-7-yl)-5-((6-chloro-1,2,3,4-tetrahydroisoquinolin-8-yl)oxy)cyclopentane-1,2-diol]
IC50 ([1]; Homo sapiens, A549, 168 h): 983 nM
IC50 [2]: 1 nM

Cc1ncnc2c1ccn2[C@@H]1C[C@H](Oc2cc(Cl)cc3c2CNCCO3)[C@@H](O)[C@H]1O [Example 204, (1S,2S,3S,5R)-3-((8-chloro-2,3,4,5-tetrahydrobenzo[f][1,4]oxazepin-6-yl)oxy)-5-(4-methyl-7H-pyrrolo[2,3-d]pyrimidin-7-yl)cyclopentane-1,2-diol]
IC50 ([1]; Homo sapiens, A549, 168 h): 720 nM
IC50 [2]: 2 nM

Cc1ncc2c(F)cn([C@@H]3C[C@H](Oc4ccc(F)c5c4CNCC5)[C@@H](O)[C@H]3O)c2n1 [Example 132, (1S,2S,3S,5R)-3-((5-fluoro-1,2,3,4-tetrahydroisoquinolin-8-yl)oxy)-5-(5-fluoro-2-methyl-7H-pyrrolo[2,3-d]pyrimidin-7-yl)cyclopentane-1,2-diol]
IC50 ([1]; Homo sapiens, A549, 168 h): 2750 nM
IC50 [2]: 2 nM

Cc1ncnc2c1ccn2[C@@H]1C[C@H](Oc2cc(C#N)cc3c2CNCC3)[C@@H](O)[C@H]1O [Example 91, 8-(((1S,2S,3S,4R)-2,3-dihydroxy-4-(4-methyl-7H-pyrrolo[2,3-d]pyrimidin-7-yl)cyclopentyl)oxy)-1,2,3,4-tetrahydroisoquinoline-6-carbonitrile]
IC50 ([1]; Homo sapiens, A549, 168 h): 119 nM
IC50 [2]: 1 nM

Cc1cc2c(c(O[C@H]3C[C@@H](n4ccc5c(C)ncnc54)[C@H](O)[C@@H]3O)n1)CNCC2 [Example 181, (1S,2S,3S,5R)-3-((3-methyl-5,6,7,8-tetrahydro-2,7-naphthyridin-1-yl)oxy)-5-(4-methyl-7H-pyrrolo[2,3-d]pyrimidin-7-yl)cyclopentane-1,2-diol]
IC50 ([1]; Homo sapiens, A549, 168 h): 1140 nM
IC50 [2]: 1 nM
